Experiment: xn = mol fraction of the nth substance listed

Cn1c(=O)c2c(ncn2C)n(C)c1=O + O
Details	viscosity [mPa·s]
293.15 K, 100 kPa, x1 = 0.000362	1.007
293.15 K, 100 kPa, x1 = 0.00054	1.01
293.15 K, 100 kPa, x1 = 0.00072	1.013
293.15 K, 100 kPa, x1 = 0.0009	1.018
293.15 K, 100 kPa, x1 = 0.00108	1.022
293.15 K, 100 kPa, x1 = 0.00126	1.027
293.15 K, 100 kPa, x1 = 0.00144	1.031
298.15 K, 100 kPa, x1 = 0.000362	0.892
298.15 K, 100 kPa, x1 = 0.00054	0.897
298.15 K, 100 kPa, x1 = 0.00072	0.901
298.15 K, 100 kPa, x1 = 0.0009	0.903
298.15 K, 100 kPa, x1 = 0.00144	0.916
298.15 K, 101 kPa, x1 = 9.11e-06	0.8903
298.15 K, 101 kPa, x1 = 1.822e-05	0.8906
298.15 K, 101 kPa, x1 = 7.288e-05	0.8912
298.15 K, 101 kPa, x1 = 0.0001457	0.8921
298.15 K, 101 kPa, x1 = 0.0001858	0.8928
298.15 K, 101 kPa, x1 = 0.0002	0.8925
298.15 K, 101 kPa, x1 = 0.0002277	0.8933
298.15 K, 101 kPa, x1 = 0.00045	0.8973
298.15 K, 101 kPa, x1 = 0.0004553	0.8967
298.15 K, 101 kPa, x1 = 0.000835	0.9028
298.15 K, 101 kPa, x1 = 0.0009102	0.904
298.15 K, 101 kPa, x1 = 0.00168	0.9204
298.15 K, 101 kPa, x1 = 0.001827	0.9238
303.15 K, 100 kPa, x1 = 0.000362	0.799
303.15 K, 100 kPa, x1 = 0.00054	0.802
303.15 K, 100 kPa, x1 = 0.00072	0.805
303.15 K, 100 kPa, x1 = 0.0009	0.809
303.15 K, 100 kPa, x1 = 0.00108	0.812
303.15 K, 100 kPa, x1 = 0.00126	0.815
303.15 K, 100 kPa, x1 = 0.00144	0.819
308.15 K, 100 kPa, x1 = 0.000362	0.72
308.15 K, 100 kPa, x1 = 0.00072	0.725
308.15 K, 100 kPa, x1 = 0.00144	0.738
308.15 K, 101 kPa, x1 = 0.0002	0.7216
308.15 K, 101 kPa, x1 = 0.000508	0.7219
308.15 K, 101 kPa, x1 = 0.000835	0.7263
308.15 K, 101 kPa, x1 = 0.00106	0.7314
308.15 K, 101 kPa, x1 = 0.00168	0.7421
308.15 K, 101 kPa, x1 = 0.001827	0.7443
310.15 K, 101 kPa, x1 = 9.11e-06	0.6928
310.15 K, 101 kPa, x1 = 1.822e-05	0.6933
310.15 K, 101 kPa, x1 = 7.288e-05	0.6952
310.15 K, 101 kPa, x1 = 0.0001457	0.6977
310.15 K, 101 kPa, x1 = 0.0001858	0.6998
310.15 K, 101 kPa, x1 = 0.0002277	0.7014
310.15 K, 101 kPa, x1 = 0.0004553	0.7104
310.15 K, 101 kPa, x1 = 0.0009102	0.7283
313.15 K, 100 kPa, x1 = 0.000362	0.652
313.15 K, 100 kPa, x1 = 0.00054	0.655
313.15 K, 100 kPa, x1 = 0.00072	0.657
313.15 K, 100 kPa, x1 = 0.0009	0.66
313.15 K, 100 kPa, x1 = 0.00108	0.663
313.15 K, 100 kPa, x1 = 0.00126	0.665
313.15 K, 100 kPa, x1 = 0.00144	0.669
318.15 K, 101 kPa, x1 = 0.0002	0.5982
318.15 K, 101 kPa, x1 = 0.000508	0.6031
318.15 K, 101 kPa, x1 = 0.000835	0.6101
318.15 K, 101 kPa, x1 = 0.00106	0.6182
318.15 K, 101 kPa, x1 = 0.00139	0.6272
318.15 K, 101 kPa, x1 = 0.00168	0.6353
318.15 K, 101 kPa, x1 = 0.001827	0.6393

Oc1ccccc1Cl + CCOCCO
viscosity [mPa·s], 101 kPa
Details	x1 = 0.0961	x1 = 0.193	x1 = 0.2907	x1 = 0.3894	x1 = 0.4889	x1 = 0.5893	x1 = 0.6906	x1 = 0.7928	x1 = 0.8959
303.15 K	2.185	2.825	3.45	3.996	4.376	4.53	4.41	4.05	3.486
308.15 K	1.948	2.453	2.949	3.365	3.66	3.784	3.706	3.43	3.005
313.15 K	1.725	2.133	2.524	2.868	3.106	3.215	3.17	2.974	2.664
318.15 K	1.567	1.887	2.19	2.449	2.63	2.724	2.702	2.57	2.341

Oc1ccccc1Cl + CC(C)CO
Details	viscosity [mPa·s]
303.15 K, 101 kPa, x1 = 0.3796	5.333

Oc1ccccc1Cl + CN(C)C=O
Details	viscosity [mPa·s]
303.15 K, 101 kPa, x1 = 0.3286	3.443

Oc1ccccc1Cl + COCCO
viscosity [mPa·s], 101 kPa
Details	x1 = 0.0797	x1 = 0.163	x1 = 0.2503	x1 = 0.3418	x1 = 0.4379	x1 = 0.5388	x1 = 0.6451	x1 = 0.757	x1 = 0.8752
303.15 K	1.925	2.342	2.78	3.204	3.56	3.811	3.884	3.735	3.376
308.15 K	1.81	2.126	2.456	2.776	3.04	3.212	3.268	3.166	2.898
313.15 K	1.479	1.762	2.055	2.335	2.586	2.765	2.842	2.785	2.593
318.15 K	1.34	1.572	1.805	2.03	2.227	2.37	2.445	2.419	2.282

Source: the CheMixHub viscosity set
